Test results from PubChem BioAssay (NCI).
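Five compound concentrations were applied to cells in 96-well plates for 48 hours; endpoints were derived by simple linear interpolation of the resulting dose-response curve. GI50 marks 50% less growth. TGI denotes the concentration required for complete inhibition of growth.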

Columns and labels:
Test in all cases: NCI tumour cell line growth inhibition, 48 h
SN12C renal = tested on: SN12C renal
DU-145 prostate = tested on: DU-145 prostate
OVCAR-5 ovarian = tested on: OVCAR-5 ovarian
IGROV1 ovarian = tested on: IGROV1 ovarian
UO-31 renal = tested on: UO-31 renal
SK-MEL-5 melanoma = tested on: SK-MEL-5 melanoma
UACC-62 melanoma = tested on: UACC-62 melanoma
SR leukemia = tested on: SR leukemia

| SMILES | GI50 (SN12C renal) | TGI (SN12C renal) | GI50 (DU-145 prostate) | TGI (DU-145 prostate) | GI50 (OVCAR-5 ovarian) | TGI (OVCAR-5 ovarian) | GI50 (IGROV1 ovarian) | TGI (IGROV1 ovarian) | GI50 (UO-31 renal) | TGI (UO-31 renal) | GI50 (SK-MEL-5 melanoma) | TGI (SK-MEL-5 melanoma) | GI50 (UACC-62 melanoma) | TGI (UACC-62 melanoma) | TGI (SR leukemia) | GI50 (SR leukemia) |
| --- | --- | --- | --- | --- | --- | --- | --- | --- | --- | --- | --- | --- | --- | --- | --- | --- |
| COc1cc2c(cc1OC)C(=O)/C(=C/c1cccc(OCC(=O)c3ccccc3)c1)C2 | 23.8 µM | > 100 µM | 11.3 µM | > 100 µM | 73.9 µM | > 100 µM | 5.79 µM | > 100 µM | 6.93 µM | > 100 µM | 4.24 µM | > 100 µM | 8.07 µM | 90.8 µM |  |  |
| N#CCC1COc2ccccc2O1 (centres undefined) |  | > 10 µM |  | > 10 µM |  | > 10 µM |  | > 10 µM |  |  |  | > 10 µM |  | > 10 µM | > 10 µM |  |
| CCC[CH2][Sn-]([CH2]CCC)([CH2]CCC)[O]c1cc(Cl)c(Cl)cc1Cl | 0.164 µM | 0.338 µM |  |  |  |  | 0.162 µM | 0.379 µM |  |  | 0.168 µM | 0.335 µM | 0.152 µM | 0.394 µM |  |  |
| O=C(NNc1nc(Cl)nc(N2CCN(C(c3ccccc3)c3ccccc3)CC2)n1)c1ccccc1 | 1.72 µM | 3.17 µM | 2.15 µM | 4.53 µM | 12.7 µM | 40.7 µM | 1.66 µM | 3.06 µM | 2.54 µM | 17.2 µM | 5.35 µM | 18.8 µM | 1.72 µM | 3.29 µM |  |  |
| COc1ccc2cc(C(=O)/C=C/c3cc(OC)c(OC)c(OC)c3)ccc2c1 | 1.73 µM | 8.78 µM | 2.06 µM | 11.2 µM |  |  | 5.49 µM | 18.5 µM | 7.44 µM | 15.5 µM | 0.0737 µM | 1.01 µM | 5.25 µM | 12.7 µM | > 50 µM | 1.32 µM |
| Cc1ccc(-[n+]2c3cc(N)c(C)cc3nc3cc(C)c(Nc4ccccc4)cc32)cc1 |  |  | 0.0534 µM | 1.08 µM | 0.357 µM | 1.48 µM | 0.166 µM | 1.54 µM | 0.27 µM | 1.03 µM | 0.147 µM | 0.289 µM | 0.236 µM | 0.979 µM |  |  |
| C=C1C(=O)O[C@H]2[C@H]1CC/C(Cn1cc(CNC(=O)Cc3cn(C(=O)c4ccc(Cl)cc4)c4ccc(OC)cc34)nn1)=C\CC[C@@]1(C)O[C@@H]21 | 1.62 µM | 3.21 µM | 1.75 µM | 3.35 µM | 1.66 µM | 3.34 µM | 1.71 µM | 3.32 µM | 1.53 µM | 3.05 µM | 1.77 µM | 3.28 µM | 1.63 µM | 3.18 µM |  |  |
| COc1cc(-c2nn(-c3ccc(NC(=O)c4ccc(Cl)c(Cl)c4)cc3)cc2-c2ccncc2)ccc1Cl | 5.11 µM | > 100 µM | > 100 µM | > 100 µM | > 100 µM | > 100 µM | > 100 µM | > 100 µM | 2.73 µM | 9.85 µM |  |  | 6.34 µM | > 100 µM | > 100 µM | 18.7 µM |
| COc1nc(N(C)O)nc(N(C)O)n1 | 2.25 µM | > 100 µM | 0.858 µM | > 100 µM |  |  | 0.632 µM | > 100 µM | 1.13 µM | > 100 µM | 1.47 µM | 23.1 µM | 2.28 µM | 9.92 µM | 4.35 µM | 0.391 µM |
| ClCc1cccc(Cn2cnc3c(Cl)ncnc32)c1 | 2.32 µM | 5.13 µM | 11.2 µM | 24 µM | 2.08 µM | 4.32 µM | 9.31 µM | 33.5 µM | 14.4 µM | 35.9 µM | 2.3 µM | 6.38 µM | 1.82 µM | 3.4 µM |  |  |
| COc1ccc(Cl)cc1Nc1nc(C(F)(F)F)ccc1C(=O)N/N=C/c1c(Cl)cccc1Cl | 8.78 µM | > 100 µM | 5.91 µM | > 100 µM | > 100 µM | > 100 µM |  |  |  |  |  |  | 7.16 µM | > 100 µM |  |  |
| N#Cc1c(Sc2ccccc2N)cccc1Sc1ccccc1N | 42.1 µM |  |  |  |  |  | 50.9 µM |  | 7.56 µM |  | 34.7 µM |  | 14.7 µM |  |  | 56.8 µM |
| COc1ccc(N=C2CSc3nnc(-c4cc(F)c(Cl)cc4Cl)n3N2)cc1 | 2.61 µM | 14.4 µM | 1.47 µM | 3.87 µM | 1.9 µM | 4.57 µM | 0.187 µM | 0.595 µM |  |  | 1.28 µM | 11.1 µM | 0.576 µM | 23.2 µM | 0.799 µM | 0.33 µM |
| CC(=O)n1c(COS(C)(=O)=O)nc2ccccc21 |  | > 100 µM |  | > 100 µM |  | > 100 µM |  | > 100 µM |  | > 100 µM |  | > 100 µM |  | > 100 µM |  |  |
| COc1ccc(-c2nc3sc(C)cn3c2/C=C/C(=O)c2cc(OC)c(OC)c(OC)c2)cc1 | 4.07 µM | > 100 µM | 3.69 µM | > 100 µM | > 100 µM | > 100 µM | 1.65 µM | 4.33 µM | 2.27 µM | 7.61 µM | 1.51 µM | 2.91 µM | 2.82 µM | > 100 µM |  |  |
